Earlier results in US20100047273A1, “Coxsackie B virus and type 1 diabetes” (priority 2007, published 2010).

System: coxsackie B4 virus
Details: reported in references 4 and 5

Cc1cc(CCCOc2c(C)cc(-c3noc(C(F)(F)F)n3)cc2C)on1 [pleconaril]
activity against coxsackie B4 virus: active
